Reference: BindingDB's records for doi:10.1016/s0960-894x(01)00397-3 (Glaxosmithkline, 2001)

Target: C-C chemokine receptor type 2 (Homo sapiens, UniProt P41597)
Assay: Inhibition of [125I]MCP-1 binding to the cloned C-C chemokine receptor type 2B expressed in CHO cells

Chain of C-C chemokine receptor type 2 (P41597 whole entry): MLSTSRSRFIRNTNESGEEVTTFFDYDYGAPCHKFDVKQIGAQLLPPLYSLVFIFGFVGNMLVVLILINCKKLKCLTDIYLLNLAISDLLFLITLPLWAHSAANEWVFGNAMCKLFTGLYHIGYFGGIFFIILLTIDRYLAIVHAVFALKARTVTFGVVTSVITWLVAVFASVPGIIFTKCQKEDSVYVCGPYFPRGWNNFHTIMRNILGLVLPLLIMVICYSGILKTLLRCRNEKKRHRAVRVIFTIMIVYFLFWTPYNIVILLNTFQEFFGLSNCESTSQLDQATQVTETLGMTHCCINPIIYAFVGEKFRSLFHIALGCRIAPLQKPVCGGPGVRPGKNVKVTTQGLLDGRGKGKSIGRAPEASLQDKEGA

For O=C(/C=C/c1ccc(Cl)c(Cl)c1)N[C@H]1CC[C@H](CN2CCC(c3c[nH]c4ccc(O)cc34)CC2)CC1 [3-(3,4-dichlorophenyl)-N-((1r,4r)-4-((4-(5-hydroxy-1H-indol-3-yl)piperidin-1-yl)methyl)cyclohexyl)acrylamide], the Ki was 316 nM.
